According to patent US20060116316A1, “Heterocyclic inhibitors of IRES-mediated translation and methods of use thereof” (priority 2004, published 2006):
Where a SMILES comes first, the peptide text is derived from it.

System: HCV IRES
Test: HCV IRES reporter FACS assay (GFP expression ratio, intein-expressed cyclic peptides)
Type: cell-based, Hepatitis C virus
Details: ratio at least 1.20 = significant activity
From the text: [The source words this procedure for another variant and says it was used here with some conditions changed.] Cells producing libraries of cyclic 3-mers and 4-mers (i.e., libraries of cyclic peptides that contain 3 or 4 amino acid residues) were constructed using methods identical to those of Kinsella et al (J Biol. Chem. 2002 277:37512-8), except different oligonucleotides were used for library construction. Clones from this library were screened in an assay shown in FIG. 2 to identify IRES-inhibitory compounds.
In summary, separate cyclic 3-mer and cyclic 4-mer libraries were constructed such that each peptide of the library contained a fixed Ser, Thr or Cys residue (at position 1) and the remaining residues were randomized. For library construction, degenerate oligonucleotides of sequence 5′-[…](AGC/ACC/TGC)(NNK)2 or 3 TGCATCAGCGGCGACAG-3′ were annealed to the primer 5′-[…]-3′ and extended using the Expand PCR kit (Roche Molecular Biochemicals). The double-stranded DNA insert was digested and inserted into the BclI/DrdI sites of DnaBO-e-BFP (ACUC). The plasmid libraries were electroporated into ElectroMAX DH 10B competent E. coli (Invitrogen) for amplification on LB+amp agar medium. […] Expression of the intein is detected by detecting BFP expression. Expression of the intein (and the cyclic peptide produced by the intein) is suppressible by addition of exogenous doxycycline. The amino acid sequence of the junctions of the intein scaffold used in making the 3-mer library is Val-His-Asn-X3 or 4-Cys-Ile-Ser, where X3 or 4 are three or four contiguous amino acids.
Infectious retroviral particles were produced by transfection of 15 µg of each library (as described in Swift et al, (1999). Current Protocols in Immunology Vol. 10.17C, pp. 1-17, Freeman, N.Y.) into approximately 5×10^6 Phoenix-A packaging cells. Each resulting library of retroviral particles was then used to infect 5×10^6 BJAB-S3A11 reporter cells and a FACS based selection was carried out to isolate cells with reduced HCV-IRES reporter output.
In detail, referring to FIG. 2, the cells used in the assay contained an IRES-dependent reporter system. […]. Also present in the cells is a control reporter system for assaying the activity of 5′ cap-dependent translation (the mechanism by which most cellular proteins are normally translated). The control reporter system contains a CMV promoter that drives the transcription of an RNA containing 5′ cap-dependent UTR, operably linked to an RNA encoding RFP (red fluorescent protein). Translation of RFP is dependent on the activity of the 5′ cap-dependent UTR.
Cells containing both the cyclic compound library and the reporter systems described above were first screened for survival upon exposure to diptheria toxin, and then screened by FACS to identify cells that had reduced GFP expression, as compared to RFP expression. Cells were expanded and replica-plated and grown in the presence or absence of dox (100 ng/ml) for four days. Plates were stimulated with IL-4 and GFP expression (relative to RFP) was monitored by flow cytometry. The IRES-inhibitory activity of a peptide is evaluated by calculating the ratio of the geometric mean of GFP expression of peptide positive cells (“peptide pos+” cells i.e., cells not contacted with dox) to the geometric mean of GFP expression of peptide negative cells (“peptide pos−” cells i.e., cells contacted with dox).
Cyclic peptides assigned higher scores have a greater IRES-inhibitory activity.
The number shown in parentheses after each of the amino acid sequences is the IRES-inhibitory activity ratio, as discussed above.

[1] = 3-mers from mutant intein scaffold, junction Val-His-Asn-X1X2X3-Trp-Ile-Ser
[2] = 4-mers from mutant intein scaffold, junction Val-His-Asn-X1X2X3X4-Cys-Ser
[3] = 3-mers from mutant intein scaffold, junction Val-His-Tyr-X1X2X3-Cys-Ile-Ser
[4] = BJAB-S3A11 reporter cells, +/- dox 100 ng/ml four days, library intein junction Val-His-Asn-X1X2X3-Cys-Ile-Ser

O=C1N[C@@H](CS)C(=O)N[C@@H](Cc2c[nH]c3ccccc23)C(=O)N[C@H]1CO [cyclo-SCW, cyclo[SCW]] (cyclo(Cys-Trp-Ser))
IRES-inhibitory activity ratio (geometric mean GFP expression, peptide positive cells / peptide negative cells) [1]: 2.01

N=C(N)NCCC[C@@H]1NC(=O)[C@H](CO)NC(=O)[C@H](Cc2c[nH]c3ccccc23)NC1=O [cyclo-SRW, cyclo[SRW]] (cyclo(Arg-Trp-Ser))
IRES-inhibitory activity ratio (geometric mean GFP expression, peptide positive cells / peptide negative cells) [1]: 2.14

NC(=O)CC[C@@H]1NC(=O)[C@H](CO)NC(=O)[C@H](Cc2c[nH]c3ccccc23)NC1=O [cyclo-SQW, cyclo[SQW]] (cyclo(Gln-Trp-Ser))
IRES-inhibitory activity ratio (geometric mean GFP expression, peptide positive cells / peptide negative cells) [1]: 2.20

NCCCC[C@@H]1NC(=O)[C@H](Cc2ccccc2)NC(=O)[C@H](Cc2c[nH]c3ccccc23)NC(=O)[C@H](CO)NC1=O [cyclo-SWFK, cyclo[SWFK]] (cyclo(FKSW))
IRES-inhibitory activity ratio (geometric mean GFP expression, peptide positive cells / peptide negative cells) [2]: 1.58

CC(C)[C@@H]1NC(=O)[C@H](CCC(=O)O)NC(=O)[C@H](CO)NC1=O [cyclo-SEV, cyclo[SEV]] (cyclo(Glu-Val-Ser))
IRES-inhibitory activity ratio (geometric mean GFP expression, peptide positive cells / peptide negative cells) [3]: 1.93

O=C1N[C@@H](Cc2c[nH]c3ccccc23)C(=O)N[C@@H](CO)C(=O)N[C@H]1CO [cyclo-SSW, cyclo[SSW]] (cyclo(Ser-Ser-Trp))
IRES-inhibitory activity ratio (geometric mean GFP expression, peptide positive cells / peptide negative cells) [1]: 2.05

NC(=O)C[C@@H]1NC(=O)[C@H](CO)NC(=O)[C@H](Cc2c[nH]c3ccccc23)NC1=O [cyclo-SNW, cyclo[SNW]] (cyclo(Asn-Trp-Ser))
IRES-inhibitory activity ratio (geometric mean GFP expression, peptide positive cells / peptide negative cells) [1]: 2.10

CC(C)[C@@H]1NC(=O)[C@H](Cc2cnc[nH]2)NC(=O)[C@H](CO)NC1=O [cyclo-SHV, cyclo[SHV]] (cyclo(His-Val-Ser))
IRES-inhibitory activity ratio (geometric mean GFP expression, peptide positive cells / peptide negative cells) [3]: 1.91

O=C1N[C@@H](Cc2c[nH]c3ccccc23)C(=O)N[C@@H](Cc2ccccc2)C(=O)N[C@H]1CO [cyclo-SWF, cyclo[SWF]] (cyclo(Phe-Ser-Trp))
IRES-inhibitory activity ratio (geometric mean GFP expression, peptide positive cells / peptide negative cells) [4]: 1.33

C[C@@H]1NC(=O)[C@H](CS)NC(=O)[C@H](Cc2c[nH]c3ccccc23)NC1=O [cyclo-CAW, cyclo[CAW]] (cyclo(Ala-Trp-Cys))
IRES-inhibitory activity ratio (geometric mean GFP expression, peptide positive cells / peptide negative cells) [4]: 1.37

C[C@@H]1NC(=O)[C@H](CO)NC(=O)[C@H]([C@@H](C)O)NC1=O [cyclo-SAT, cyclo[SAT]] (cyclo(Ala-Thr-Ser))
IRES-inhibitory activity ratio (geometric mean GFP expression, peptide positive cells / peptide negative cells) [3]: 1.21

C[C@@H](O)[C@@H]1NC(=O)[C@H](Cc2c[nH]c3ccccc23)NC(=O)[C@H](CS)NC1=O [cyclo-TCW, cyclo[TCW]] (cyclo(Cys-Trp-Thr))
IRES-inhibitory activity ratio (geometric mean GFP expression, peptide positive cells / peptide negative cells) [4]: 1.48

CSCC[C@@H]1NC(=O)[C@H](Cc2c[nH]c3ccccc23)NC(=O)[C@H](CO)NC1=O [cyclo-SWM, cyclo[SWM]] (cyclo(Met-Ser-Trp))
IRES-inhibitory activity ratio (geometric mean GFP expression, peptide positive cells / peptide negative cells) [4]: 1.22

CSCC[C@@H]1NC(=O)[C@H](CS)NC(=O)[C@H](Cc2c[nH]c3ccccc23)NC1=O [cyclo-CMW, cyclo[CMW]] (cyclo(Cys-Met-Trp))
IRES-inhibitory activity ratio (geometric mean GFP expression, peptide positive cells / peptide negative cells) [4]: 1.29

CC(C)[C@@H]1NC(=O)[C@H](Cc2c[nH]c3ccccc23)NC(=O)[C@H](CO)NC1=O [cyclo-SWV, cyclo[SWV]] (cyclo(Ser-Trp-Val))
IRES-inhibitory activity ratio (geometric mean GFP expression, peptide positive cells / peptide negative cells) [4]: 1.83

C[C@@H](O)[C@@H]1NC(=O)[C@H](Cc2c[nH]c3ccccc23)NC(=O)[C@H](CC(N)=O)NC1=O [cyclo-TQW, cyclo[TQW]]
IRES-inhibitory activity ratio (geometric mean GFP expression, peptide positive cells / peptide negative cells) [4]: 1.7

CC(C)C[C@@H]1NC(=O)[C@H](CO)NC(=O)[C@H](Cc2c[nH]c3ccccc23)NC1=O [cyclo-SLW, cyclo[SLW]] (cyclo(Leu-Trp-Ser))
IRES-inhibitory activity ratio (geometric mean GFP expression, peptide positive cells / peptide negative cells) [4]: 1.27

O=C1N[C@@H](Cc2c[nH]c3ccccc23)C(=O)N[C@@H](Cc2c[nH]c3ccccc23)C(=O)N[C@H]1CS [cyclo-CWW, cyclo[CWW]] (cyclo(Cys-Trp-Trp))
IRES-inhibitory activity ratio (geometric mean GFP expression, peptide positive cells / peptide negative cells) [4]: 1.41

O=C1N[C@@H](Cc2ccc(O)cc2)C(=O)N[C@@H](Cc2c[nH]c3ccccc23)C(=O)N[C@H]1CS [cyclo-CYW, cyclo[CYW]] (cyclo(Cys-Tyr-Trp))
IRES-inhibitory activity ratio (geometric mean GFP expression, peptide positive cells / peptide negative cells) [4]: 1.3

CC(C)[C@@H]1NC(=O)[C@H](C)NC(=O)[C@H](CO)NC1=O [cyclo-SAV, cyclo[SAV]] (cyclo(Ala-Val-Ser))
IRES-inhibitory activity ratio (geometric mean GFP expression, peptide positive cells / peptide negative cells) [3]: 2.65

CSCC[C@@H]1NC(=O)[C@H]([C@@H](C)O)NC(=O)[C@H](C(C)C)NC1=O [cyclo-TMV, cyclo[TMV]] (cyclo(Met-Val-Thr))
IRES-inhibitory activity ratio (geometric mean GFP expression, peptide positive cells / peptide negative cells) [4]: 1.56

CCC(C)[C@@H]1NC(=O)[C@H](CO)NC(=O)[C@H](Cc2c[nH]c3ccccc23)NC1=O (some centres unmarked) [cyclo-SIW, cyclo[SIW]]
IRES-inhibitory activity ratio (geometric mean GFP expression, peptide positive cells / peptide negative cells) [4]: 1.36

N=C(N)NCCC[C@@H]1NC(=O)[C@H](Cc2c[nH]c3ccccc23)NC(=O)[C@H](Cc2ccccc2)NC(=O)[C@H](CO)NC1=O [cyclo-SFWR, cyclo[SFWR]] (cyclo(FWRS))
IRES-inhibitory activity ratio (geometric mean GFP expression, peptide positive cells / peptide negative cells) [2]: 1.49

C[C@@H]1NC(=O)[C@H](CO)NC(=O)[C@H](Cc2ccccc2)NC1=O [cyclo-SAF, cyclo[SAF]] (cyclo(Ala-Phe-Ser))
IRES-inhibitory activity ratio (geometric mean GFP expression, peptide positive cells / peptide negative cells) [1]: 1.88

C[C@@H](O)[C@@H]1NC(=O)[C@H](Cc2c[nH]c3ccccc23)NC(=O)[C@H](Cc2ccc(O)cc2)NC1=O [cyclo-TYW, cyclo[TYW]] (cyclo(Thr-Tyr-Trp))
IRES-inhibitory activity ratio (geometric mean GFP expression, peptide positive cells / peptide negative cells) [4]: 2.23

C[C@@H]1NC(=O)[C@H](CO)NC(=O)[C@H](Cc2ccc(O)cc2)NC1=O [cyclo-SAY, cyclo[SAY]] (cyclo(Ala-Tyr-Ser))
IRES-inhibitory activity ratio (geometric mean GFP expression, peptide positive cells / peptide negative cells) [3]: 1.95

C[C@@H]1NC(=O)[C@H](Cc2ccccc2)NC(=O)[C@H](Cc2c[nH]c3ccccc23)NC(=O)[C@H](CO)NC1=O [cyclo-SWFA, cyclo[SWFA]] (cyclo(ASWF))
IRES-inhibitory activity ratio (geometric mean GFP expression, peptide positive cells / peptide negative cells) [2]: 1.31

CCC(C)[C@@H]1NC(=O)[C@H](C)NC(=O)[C@H](CO)NC1=O (some centres unmarked) [cyclo-SAI, cyclo[SAI]]
IRES-inhibitory activity ratio (geometric mean GFP expression, peptide positive cells / peptide negative cells) [1]: 1.30

CSCC[C@@H]1NC(=O)[C@H](CO)NC(=O)[C@H](Cc2c[nH]c3ccccc23)NC1=O [cyclo-SMW, cyclo[SMW]] (cyclo(Met-Trp-Ser))
IRES-inhibitory activity ratio (geometric mean GFP expression, peptide positive cells / peptide negative cells) [4]: 1.28
